Each structure is given as a SMILES string. Calls of active or inactive are those of the source. The calls are words filed in the database; no cut-off is given here.

These results are taken from ChEMBL document CHEMBL3044641, “Design and synthesis of some novel 3-[5-(4-substituted) phenyl-1,3,4-oxadiazole-2yl]-2-phenylquinazoline-4(3H)-ones as possible anticonvulsant agent” (Med Chem Res, 2011).

For data set [1], the system named is Mus musculus. Description: Neurotoxicity in Mus musculus albino (mouse) assessed as minimal motor impairment at 300 mg/kg, ip after 0.5 hr by rotarod test. On the set-up: dose 300 mg/kg, route intraperitoneal. The format is toxicity, organism-based. Conditions: in vivo.
In data set [2] the test system is Mus musculus. Description: Anticonvulsant activity in Mus musculus albino (mouse) assessed as protection against maximal electroshock-induced seizure at 300 mg/kg, ip after 0.5 hr. In kind it is functional, organism-based. On the set-up: dose 300 mg/kg. Background: Protection in the maximal electroshock model is a classic sign of anticonvulsant action.
Data set [3] has as its system Mus musculus. Description: Anticonvulsant activity in Mus musculus albino (mouse) assessed as protection against subcutaneous metrazole-induced seizure at 300 mg/kg, ip after 4 hr. In kind it is functional, organism-based. Set-up: dose 300 mg/kg.
The test system of data set [4] is Mus musculus. Description: Anticonvulsant activity in Mus musculus albino (mouse) assessed as protection against subcutaneous metrazole-induced seizure at 300 mg/kg, ip after 0.5 hr. On the set-up: dose 300 mg/kg. The format is functional, organism-based.
Data set [5] concerns Mus musculus. Description: Anticonvulsant activity in Mus musculus albino (mouse) assessed as protection against maximal electroshock-induced seizure at 300 mg/kg, ip after 4 hr. The format is functional, organism-based. Set-up: dose 300 mg/kg.
Data set [6] concerns Mus musculus. Description: Neurotoxicity in Mus musculus albino (mouse) assessed as minimal motor impairment at 300 mg/kg, ip after 4 hr by rotarod test. Particulars: in vivo. In kind it is toxicity, organism-based. Set-up: dose 300 mg/kg, route intraperitoneal. (Falling from the rotarod earlier than controls is read as motor impairment.)
In data set [7] the test system is Mus musculus. Description: Neurotoxicity in ip dosed Mus musculus albino (mouse) assessed as minimal motor impairment after 4 hr by rotarod test. Particulars: in vivo. In kind it is toxicity, organism-based.
Data set [8] concerns Mus musculus. Description: Neurotoxicity in ip dosed Mus musculus albino (mouse) assessed as minimal motor impairment after 0.5 hr by rotarod test. In kind it is toxicity, organism-based. Conditions: in vivo.
Data set [9] concerns Mus musculus. Description: Anticonvulsant activity in ip dosed Mus musculus albino (mouse) assessed as protection against maximal electroshock-induced seizure after 4 hr. The format is functional. Particulars: read-out: MED.
The subject of data set [10] is Mus musculus. Description: Anticonvulsant activity in ip dosed Mus musculus albino (mouse) assessed as protection against maximal electroshock-induced seizure after 0.5 hr. Conditions: read-out: MED. The format is functional.
For data set [11], the system named is Mus musculus. Description: Anticonvulsant activity in ip dosed Mus musculus albino (mouse) assessed as protection against subcutaneous metrazole-induced seizure after 4 hr. The format is functional. Conditions: read-out: MED.
In data set [12] the test system is Mus musculus. Description: Anticonvulsant activity in ip dosed Mus musculus albino (mouse) assessed as protection against subcutaneous metrazole-induced seizure after 0.5 hr. The format is functional. Particulars: read-out: MED.

In the case of `O=c1c2ccccc2nc(-c2ccccc2)n1-c1nnc(-c2ccc(Cl)cc2)o1`, the Activity result in the data set on Mus musculus [1] and in the data set with Mus musculus [6] was “Non-toxic” each time. Also, the result with Mus musculus [2], with Mus musculus [3], with Mus musculus [4] and in the data set on Mus musculus [5] was inactive.

`Cc1ccc(-c2nnc(-n3c(-c4ccccc4)nc4ccccc4c3=O)o2)cc1`: the Activity result with Mus musculus [1] was “Non-toxic”; in the data set on Mus musculus [7] it was 300 mg/kg. The outcome in the data set with Mus musculus [2], with Mus musculus [3], in the data set on Mus musculus [4] and in the data set on Mus musculus [5] was inactive.

On to `O=c1c2ccccc2nc(-c2ccccc2)n1-c1nnc(-c2ccc([N+](=O)[O-])cc2)o1`, for which the outcome in the data set with Mus musculus [2], in the data set with Mus musculus [3], in the data set on Mus musculus [4] and with Mus musculus [5] was inactive. In addition, the Activity in the data set on Mus musculus [8] and in the data set with Mus musculus [7] was 300 mg/kg each time.

Consider `O=C1NC(=O)C(c2ccccc2)(c2ccccc2)N1` [PHENYTOIN], for which the minimal effective dose in the data set on Mus musculus [9] and in the data set with Mus musculus [10] was 30 mg/kg each time. Also, the Activity in the data set with Mus musculus [8] and with Mus musculus [7] was 100 mg/kg in each case. Further, the result in the data set on Mus musculus [3] and in the data set on Mus musculus [4] was inactive.

Take `COc1ccc(-c2nnc(-n3c(-c4ccccc4)nc4ccccc4c3=O)o2)cc1`: the outcome in the data set with Mus musculus [2], in the data set with Mus musculus [3], in the data set with Mus musculus [4] and in the data set on Mus musculus [5] was inactive. Besides, the Activity in the data set on Mus musculus [8] and in the data set on Mus musculus [7] was 300 mg/kg throughout.

Consider `O=c1c2ccccc2nc(-c2ccccc2)n1-c1nnc(-c2ccccc2)o1`, for which the Activity result in the data set on Mus musculus [1] and in the data set on Mus musculus [6] was “Non-toxic” each time. Also, the minimal effective dose in the data set on Mus musculus [10] was found to be 300 mg/kg. The outcome in the data set on Mus musculus [3], with Mus musculus [4] and in the data set on Mus musculus [5] was inactive.

Take `O=c1c2ccccc2nc(-c2ccccc2)n1-c1nnc(-c2ccc(F)cc2)o1`: the minimal effective dose in the data set with Mus musculus [9] and in the data set on Mus musculus [10] was 300 mg/kg throughout. The results for the Activity in the data set with Mus musculus [8] and with Mus musculus [6] were 300 mg/kg and “Non-toxic”, respectively. Moreover, the outcome in the data set on Mus musculus [3] and in the data set on Mus musculus [4] was inactive.

In the case of `NC(=O)N1c2ccccc2C=Cc2ccccc21` [CARBAMAZEPINE], the minimal effective dose came to 300 mg/kg with Mus musculus [11], 100 mg/kg in the data set with Mus musculus [12], 100 mg/kg with Mus musculus [9] and 30 mg/kg in the data set with Mus musculus [10]. The Activity was 100 mg/kg in the data set on Mus musculus [8] and 300 mg/kg in the data set on Mus musculus [7].
